From patent US20070077308A1, “CONTINUOUS MULTI-MICROENCAPSULATION PROCESS FOR IMPROVING THE STABILITY AND STORAGE LIFE OF BIOLOGICALLY ACTIVE INGREDIENTS” (priority 2003, published 2007)

Test: Storage stability of microencapsulated fish oil fatty acids
Type: physicochemical
Description: We have performed tests of storage ability while remaining the active ingredients unchanged.

SMILES	% in the oil (d = 0) [% in the oil]	% in the oil (d = 30, 4° C.) [% in the oil]	% in the oil (d = 30, 25° C.) [% in the oil]	% in the oil (d = 30, 45° C.) [% in the oil]	% in the oil (d = 60, 45° C.) [% in the oil]
CCCCC/C=C\C/C=C\CCCCCCCC(=O)O [linoleic acid]	2.8	2.6	2.6	2.5	2.5
CCCCCCCCCCCCCCCC(=O)O [Palmitic acid]	1.1	1.1	1.1	1.1	1.1
CC/C=C\C/C=C\C/C=C\CCCCCCCC(=O)O [alpha-linolenic acid]	2.7	2.5	2.6	2.5	2.4
CCCCCCCCCCCCCCCCCC(=O)O [Stearic acid]	1.4	1.4	1.4	1.3	1.3
CCCCCCCC/C=C\CCCCCCCC(=O)O [oleic acid]	2.9	2.7	2.6	2.6	2.4
